From patent publication US8455546B2, “Medicament having promoting action on hepatocyte proliferation” (Josai University Educational Corporation, priority 2007, dated 2013)
Where two headings read alike, the source gives them in different places.

Tests used:
[1] = test system: primarily cultured rat hepatocytes; experiment: Influence on cell density-dependent proliferation of primarily cultured rat hepatocytes; type: cell-based; details: cell densities 1-10×10^4 cells/cm^2; NIK-333 10^−9, trans 10^−7, GGP 10^−6 mol/L; four hours; FIG. 2
Text: Hepatocytes isolated by the same method as that of Example 1 were inoculated at cell densities of 1, 2, 3.3, 5, 7, and 10×10^4 cells/cm^2. NIK-333 (10^−9 mol/L), trans (10^−7 mol/L), cis (10^−6 mol/L), GG (10^−7 mol/L), and GGP (10^−6 mol/L) were each added to the hepatocytes pre-cultured in the same manner as that of Example 1.

[2] = test system: primarily cultured rat hepatocytes; experiment: Effect of promoting proliferation of primarily cultured rat hepatocytes (number of nuclei); details: FIG. 1; for effect of promoting proliferation of primarily cultured rat hepatocytes (number of nuclei): 10^−11 to 10^−7 (and 10^−8 as printed) mol/L, four hours after addition, 3.3×10^4 cells/cm^2, vs solvent control
Experimental: (§1) Wistar male rats (weight: 200 to 205 g) were used, and hepatocytes were isolated by the in situ collagenase perfusion technique according to the method of Seglen et al. (Methods. Cell Biol., 13, pp. 29-83, 1975). The isolated hepatocytes were suspended in the Williams' medium E (containing 0.1 μg/mL aprotinin, 100 U/mL of penicillin G, 0.1 mg/mL of streptomycin, and 0.1 nmol/L of dexamethasone) containing 5% bovine neonate serum 3 times for washing, and then inoculated on a collagen coated culture dish (35 mm Φ) at a cell density of 3.3×10^4 cells/cm^2. The cells were adhered to the culture dish by culturing them at 37° C. for 3 hours in the presence of 5% CO2 to prepare a primarily cultured hepatocyte cell line. Survival rate of the isolated hepatocytes was obtained by the trypan blue exclusion method, and those showing a survival rate not lower than 93% were used for the following experiments.
(§2) Four hours after the addition of the agents, number of nuclei was measured as follows. The hepatocytes were washed with PBS, and then added with 0.25 mL of a 0.1 mol/L citric acid solution containing 0.1% Triton X-100. The cells were incubated at 37° C. for 30 minutes to solubilize the cell membranes and thereby obtain naked nuclei. The same volume of a PBS solution containing 0.3% trypan blue was further added, and number of the stained nuclei was measured with a hemacytometer.

[3] = test system: cell lines derived from human hepatoma (HuH-7, JHH-7, HLF, Hep G2); experiment: Influence on proliferation of cell lines derived from human hepatoma (WST-1 live cell count); type: cell-based; details: 10^−11 to 10^−7 mol/L, cultured overnight, FIG. 3
Experimental: The cells were inoculated on a 96-well plate at a cell density of 1×10^4 cells/mL, and cultured overnight at 37° C. in the presence of 5% CO2. […] The cells were cultured overnight at 37° C. in the presence of 5% CO2, and live cell count was measured. The live cell count was measured by using Cell Counting Kit (Wako Pure Chemical Industries). […] Absorbance was measured for each well at a measurement wavelength of 450 nm and a reference wavelength of 655 nm using a microplate reader.

[4] = test system: 70% partially hepatectomized rat (PH rat); experiment: Liver regeneration in 70% partially hepatectomized rat (PH rat); type: in vivo; details: 0.4 mg/kg/day p.o.
Experimental: Hepatocyte proliferation promoting effect of NIK-333 was examined by using a 70% partially hepatectomized rat (partial hepatectomy: PH rat) as an in vivo experiment system.
Wistar male rats (weight: 130 to 170 g) were subjected to 70% partial hepatectomy according to the method of Higgins G. M. et al. (Arch. Pathol., 12, pp. 186-202, 1931) to prepare PH rats. NIK-333 (solvent was soybean oil, 0.4 mg/kg/day) was orally administered to these PH rats once per day, the administration was repeated and continued for 1 to 14 days, and reaction was observed over time. The model animals fed for 1 to 14 days after the hepatectomy were subjected to abdominal section under diethyl ether anesthesia, and the remaining livers were extracted. The remaining livers were separated into normal hepatic tissues and necrotizing hepatic tissues (liver tissues which were not excisable by the partial hepatectomy and remained), and weight of each was measured (wet weight). The examination was performed for three animals for each group, and the results are indicated as average±standard error. Student t-test was performed between a solvent administered group (soybean oil, 4 mL/kg, p.o.) as a control group and the NIK-333 administered group. The significance level of the test was set at 5% and 1% on both sides.

[5] = test system: primarily cultured mouse hepatocytes; details: cited from earlier work
[6] = test system: rat partially hepatectomized model; details: rat partially hepatectomized model (Non-patent document 9); cited from earlier work
[7] = test system: hepatoma; details: long-term administration over one year (Non-patent document 6); cited from earlier work
[8] = test system: primarily cultured rat hepatocytes
Experimental: as §1, §2

[9] = test system: mouse liver carcinogenic model; details: reported; cited from earlier work

CC(C)=CCC/C(C)=C/CC/C(C)=C/CC/C(C)=C/COP(=O)(O)OP(=O)(O)O.N.N.N [GGP, geranylgeranyl pyrophosphate ammonium salt, reference compound]
cell proliferation promoting action with increasing cell density [1]: decreased with the increase of the cell density | effect of promoting proliferation of primarily cultured rat hepatocytes (number of nuclei) [2]: significant effect of promoting proliferation

CC(C)=CCC/C(C)=C/CC/C(C)=C/C=C/C(C)=C/C(=O)O [NIK-333, (2E,4E,6E,10E)-3,7,11,15-tetramethyl-2,4,6,10,14-hexadecapentaenoic acid]
cell proliferation promoting action with increasing cell density [1]: decreased with the increase of the cell density | proliferation promotion action for human hepatoma cell strains (live cell count) [3]: no proliferation promotion action | recovery of liver weight compared with the control group ([4]; 1 to 14 days): earlier recovery of liver weight | hyperproliferation exceeding the value of the Sham group ([4]; 14th day after PH): not observed | increase rate of liver weight ([4]; 3 days after PH): 85% | liver weight ([4]; 3 days after PH, g liver weight/100 g body weight): 3.0 g LW/BW | effect on proliferation of primarily cultured mouse hepatocytes ([5]; at a concentration inducing apoptosis of hepatoma cells (Non-patent documents 7 and 8)): does not affect proliferation | DNA synthesis of regenerated liver [6]: delays DNA synthesis | recurrence of hepatoma after radical cure [7]: significantly suppressed | effect of promoting proliferation of primarily cultured rat hepatocytes (number of nuclei) [2]: significant effect of promoting proliferation | relative strength of the proliferation promoting effect among the tested agents ([2]; comparison of NIK-333, trans, cis, GG, GGP): strongest effect

CC1=C(/C=C/C(C)=C/C=C/C(C)=C/C(=O)O)C(C)(C)CCC1 [trans, all-trans-retinoic acid]
cell proliferation promoting action with increasing cell density [1]: gave the cell proliferation promoting action even when the cell density was increased | effect of promoting proliferation of primarily cultured rat hepatocytes (number of nuclei) [8]: significant effect of promoting proliferation | proliferation of mouse hepatocytes ([5]; reported, no concentration given): induce the proliferation of mouse hepatocytes | oncogenesis in mouse liver carcinogenic model [9]: promote oncogenesis
